Values quoted from earlier work in patent US12326454B2 (Arium BioLabs LLC, priority 2019, dated 2025).

Target: cMET (Homo sapiens, UniProt P08581)
Settings: stabilizes the A-loop, auto-inhibited conformation

Sequence of cMET (P08581 25-1390): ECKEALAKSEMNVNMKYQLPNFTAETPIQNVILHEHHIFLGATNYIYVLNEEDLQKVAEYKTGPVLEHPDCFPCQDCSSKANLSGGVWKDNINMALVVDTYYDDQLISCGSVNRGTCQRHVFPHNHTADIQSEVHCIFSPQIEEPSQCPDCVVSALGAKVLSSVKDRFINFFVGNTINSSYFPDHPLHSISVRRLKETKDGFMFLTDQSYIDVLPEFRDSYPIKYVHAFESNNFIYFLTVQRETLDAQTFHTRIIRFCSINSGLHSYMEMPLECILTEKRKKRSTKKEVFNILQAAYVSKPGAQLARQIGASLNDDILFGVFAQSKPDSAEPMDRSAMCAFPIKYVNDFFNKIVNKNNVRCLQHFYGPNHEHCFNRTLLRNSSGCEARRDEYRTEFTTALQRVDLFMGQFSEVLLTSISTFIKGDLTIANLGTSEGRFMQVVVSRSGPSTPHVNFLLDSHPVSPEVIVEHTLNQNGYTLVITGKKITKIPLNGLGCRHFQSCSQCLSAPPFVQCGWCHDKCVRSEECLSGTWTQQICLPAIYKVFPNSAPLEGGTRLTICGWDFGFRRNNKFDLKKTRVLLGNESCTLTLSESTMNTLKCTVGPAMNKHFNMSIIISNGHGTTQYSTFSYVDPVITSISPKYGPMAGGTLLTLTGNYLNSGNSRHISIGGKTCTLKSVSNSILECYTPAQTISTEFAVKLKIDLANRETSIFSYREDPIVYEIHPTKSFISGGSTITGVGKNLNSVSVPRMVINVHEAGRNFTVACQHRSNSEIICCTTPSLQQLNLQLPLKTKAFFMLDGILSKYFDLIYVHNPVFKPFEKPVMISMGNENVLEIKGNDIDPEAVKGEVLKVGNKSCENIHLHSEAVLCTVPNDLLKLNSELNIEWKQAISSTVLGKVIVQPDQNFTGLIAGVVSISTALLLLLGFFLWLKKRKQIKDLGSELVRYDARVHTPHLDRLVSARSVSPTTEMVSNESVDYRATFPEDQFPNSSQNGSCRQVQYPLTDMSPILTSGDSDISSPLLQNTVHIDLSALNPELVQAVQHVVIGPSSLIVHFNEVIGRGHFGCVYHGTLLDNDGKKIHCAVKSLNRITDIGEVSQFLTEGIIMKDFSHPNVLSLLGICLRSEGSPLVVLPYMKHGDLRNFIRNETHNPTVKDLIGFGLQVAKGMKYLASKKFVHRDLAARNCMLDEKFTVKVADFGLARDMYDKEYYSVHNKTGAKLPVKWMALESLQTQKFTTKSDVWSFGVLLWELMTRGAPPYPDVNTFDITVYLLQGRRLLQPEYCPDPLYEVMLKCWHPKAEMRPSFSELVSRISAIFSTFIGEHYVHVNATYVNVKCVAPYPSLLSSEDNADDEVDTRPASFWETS

effect on cMET: selectively inhibits cMET
Compound: O=C1NC(=O)[C@@H](c2cn3c4c(cccc24)CCC3)[C@@H]1c1c[nH]c2ccccc12 [ARQ197]
